Where “and” joins values, the source holds several entries; their conditions need not be identical. Equal entries are not always repeated. Where a SMILES comes first, the peptide text is derived from it. [ ]: non-standard residue; d: D form. Hyp = O=C(O)[C@@H]1C[C@@H](O)CN1
System: CCL2/JE/MCP-1
Test: Example 9 Luminex, LPS hPBMCs: CCL2/JE/MCP-1
Assay type: cell-based, human
Description: Treatment Human PBMCs were pretreated with YY-101, YDE-011 and YDE-043 or reference compound; Xiidra® at various concentration (ranging from 1 nM to 100 uM) for 2 h before stimulation. An equal volume of 0.5% DMSO was used as a vehicle control. Then, the cells were treated with LPS at 5 ug/ml. The supernatants from treated cells were harvested at 24 h and placed in a 96 well for Luminex cytokine & chemokine profiling using a Luminex 200 multiplex assay (Luminex; R&D system, USA).
The main study arm with triplicate wells per group in a 24-well plate: • 1. Blank • 2. PBMC: 0.5% DMSO • 3. PBMC+LPS (5 ug/ml) • 4. PBMC+YY-101 100 uM • 5. PBMC+YY-101 10 uM • 6. PBMC+YY-101 1 uM • 7. PBMC+YY-101 0.1 uM • 8. PBMC+YY-101 0.01 uM • 9. PBMC+LPS (5 ug/ml)+Xiidra®100 uM • 10. PBMC+LPS (5 ug/ml)+Xiidra® 10 uM • 11. PBMC+LPS (5 ug/ml)+Xiidra® 1 uM • 12. PBMC+LPS (5 ug/ml)+Xiidra®0.1 uM • 13. PBMC+LPS (5 ug/ml)+Xiidra®0.01 uM • 14. PBMC+LPS (5 ug/ml)+Xiidra®0.001 uM • 15. PBMC+LPS (5 ug/ml)+YY-101 100 uM • 16. PBMC+LPS (5 ug/ml)+YY-101 10 uM • 17. PBMC+LPS (5 ug/ml)+YY-101 1 uM • 18. PBMC+LPS (5 ug/ml)+YY-101 0.1 uM • 19. PBMC+LPS (5 ug/ml)+YY-101 0.01 uM • 20. PBMC+LPS (5 ug/ml)+YY-101 0.001 uM • 21. PBMC+LPS (5 ug/ml)+YDE-011 100 uM • 22. PBMC+LPS (5 ug/ml)+YDE-011 10 uM • 23. PBMC+LPS (5 ug/ml)+YDE-011 1 uM • 24. PBMC+LPS (5 ug/ml)+YDE-011 0.1 uM • 25. PBMC+LPS (5 ug/ml)+YDE-011 0.01 uM • 26. PBMC+LPS (5 ug/ml)+YDE-011 0.001 uM • 27. PBMC+LPS (5 ug/ml)+YDE-043 100 uM • 28. PBMC+LPS (5 ug/ml)+YDE-043 10 uM • 29. PBMC+LPS (5 ug/ml)+YDE-043 1 uM • 30. PBMC+LPS (5 ug/ml)+YDE-043 0.1 uM • 31. PBMC+LPS (5 ug/ml)+YDE-043 0.01 uM • 32. PBMC+LPS (5 ug/ml)+YDE-043 0.001 uM
Multiplex assay was used to measure 30 cytokines and chemokines. The 1:2, 1:10 and 1:200 diluted cell supernatant and serial dilution of the standard were dispensed into a 96 well plate at 50 ul/well. Then, the pre-mixed cocktail of antibody-coated magnetic beads was dispensed at 50 ul/well and incubated at room temperature for 2 h in a horizontal orbital microplate shaker at 800±500 rpm. The beads were washed using a magnetic device to prevent loss. The biotin-antibody was dispensed in 50 ul of each well and incubated at room temperature for 1 h in a shaker at 800±500 rpm. After washing, streptavidin-PE was added at 50 ul/well and incubated at room temperature for 30 min in a shaker under the same conditions. Finally, after washing, wash buffer (100 ul/well) was added to the plate and incubated in a shaker for 2 min. The Luminex™ 200 setting were set according to the manufacturer's protocol. The data was calculated with a standard five-parameter logistic nonlinear regression analysis of the data (xPonent software 4.2, USA). The levels of cytokine/chemokine are normalized to the live cell counts (1×10^5 cells/mL) and presented as concentrations per mL (pg/mL or ng/mL).

[1] = PBMC + LPS(5 ug/ml) + test article 0.001 uM, Mean
[2] = PBMC + LPS(5 ug/ml) + test article 0.001 uM, individual replicates
[3] = PBMC + LPS(5 ug/ml) + test article 0.01 uM, Mean
[4] = PBMC + LPS(5 ug/ml) + test article 0.01 uM, individual replicates
[5] = PBMC + LPS(5 ug/ml) + test article 0.1 uM, Mean
[6] = PBMC + LPS(5 ug/ml) + test article 0.1 uM, individual replicates
[7] = PBMC + LPS(5 ug/ml) + test article 1 uM, Mean
[8] = PBMC + LPS(5 ug/ml) + test article 1 uM, individual replicates
[9] = PBMC + LPS(5 ug/ml) + test article 10 uM, Mean
[10] = PBMC + LPS(5 ug/ml) + test article 10 uM, individual replicates
[11] = PBMC + LPS(5 ug/ml) + test article 100 uM, Mean
[12] = PBMC + LPS(5 ug/ml) + test article 100 uM, individual replicates
[13] = PBMC + test article 0.01 uM, no LPS, Mean
[14] = PBMC + test article 0.01 uM, no LPS, individual replicates
[15] = PBMC + test article 0.1 uM, no LPS, Mean
[16] = PBMC + test article 0.1 uM, no LPS, individual replicates
[17] = PBMC + test article 1 uM, no LPS, Mean
[18] = PBMC + test article 1 uM, no LPS, individual replicates
[19] = PBMC + test article 10 uM, no LPS, Mean
[20] = PBMC + test article 10 uM, no LPS, individual replicates
[21] = PBMC + test article 100 uM, no LPS, Mean
[22] = PBMC + test article 100 uM, no LPS, individual replicates

## CC(C)C[C@H](NC(=O)CNC(=O)[C@H](CC(=O)O)NC(=O)[C@H](CCC(N)=O)NC(=O)CNC(=O)[C@@H]1C[C@@H](O)CN1)C(=O)N[C@@H](C)C(=O)NCC(=O)N1CCC[C@H]1C(=O)N[C@@H](CCCCN)C(=O)O [YY-101] (H-[Hyp]GQDGLAGPK-OH; N-terminus and C-terminus assumed)
[1]
  Concentration: 3936.7 pg/mL
  conc/live cell: 612.8 pg/10^5
[2]
  Concentration: 3765.3 pg/mL and 3838.5 pg/mL and 4206.2 pg/mL
  conc/live cell: 660.6 pg/10^5 and 540.6 pg/10^5 and 637.3 pg/10^5
[3]
  Concentration: 4029.1 pg/mL
  conc/live cell: 653.6 pg/10^5
[4]
  Concentration: 4143.7 pg/mL and 4045.9 pg/mL and 3897.7 pg/mL
  conc/live cell: 647.5 pg/10^5 and 674.3 pg/10^5 and 639.0 pg/10^5
[5]
  Concentration: 3583.8 pg/mL
  conc/live cell: 616.4 pg/10^5
[6]
  Concentration: 3601.3 pg/mL and 3708.0 pg/mL and 3442.0 pg/mL
  conc/live cell: 580.9 pg/10^5 and 713.1 pg/10^5 and 555.2 pg/10^5
[7]
  Concentration: 4023.9 pg/mL
  conc/live cell: 619.0 pg/10^5
[8]
  Concentration: 3902.2 pg/mL and 3911.6 pg/mL and 4257.8 pg/mL
  conc/live cell: 619.4 pg/10^5 and 550.9 pg/10^5 and 686.7 pg/10^5
[9]
  Concentration: 3459.8 pg/mL
  conc/live cell: 524.3 pg/10^5
[10]
  Concentration: 3308.6 pg/mL and 3697.4 pg/mL and 3373.4 pg/mL
  conc/live cell: 551.4 pg/10^5 and 577.7 pg/10^5 and 443.9 pg/10^5
[11]
  Concentration: 598.6 pg/mL
  conc/live cell: 104.2 pg/10^5
[12]
  Concentration: 541.0 pg/mL and 629.1 pg/mL and 625.5 pg/mL
  conc/live cell: 85.9 pg/10^5 and 101.5 pg/10^5 and 125.1 pg/10^5
[13]
  Concentration: 3382.2 pg/mL
  conc/live cell: 692.4 pg/10^5
[14]
  Concentration: 1522.2 pg/mL and 5242.2 pg/mL
  conc/live cell: 292.7 pg/10^5 and 1092.1 pg/10^5
[15]
  Concentration: 2047.1 pg/mL
  conc/live cell: 389.7 pg/10^5
[16]
  Concentration: 1338.6 pg/mL and 2755.6 pg/mL
  conc/live cell: 304.2 pg/10^5 and 475.1 pg/10^5
[17]
  Concentration: 1790.1 pg/mL
  conc/live cell: 325.5 pg/10^5
[18]
  Concentration: 1471.3 pg/mL and 2108.8 pg/mL
  conc/live cell: 267.5 pg/10^5 and 383.4 pg/10^5
[19]
  Concentration: 7729.5 pg/mL
  conc/live cell: 1218.8 pg/10^5
[20]
  Concentration: 12584.2 pg/mL and 2874.9 pg/mL
  conc/live cell: 1966.3 pg/10^5 and 471.3 pg/10^5
[21]
  Concentration: 1095.4 pg/mL
  conc/live cell: 165.8 pg/10^5
[22]
  Concentration: 1394.1 pg/mL and 796.7 pg/mL
  conc/live cell: 217.8 pg/10^5 and 113.8 pg/10^5

## CC(C)C[C@H](NC(=O)[C@H](CCC(N)=O)NC(=O)CNC(=O)[C@@H]1C[C@@H](O)CN1)C(=O)NCC(=O)O [YDE-043] (H-[Hyp]GQLG-OH; N-terminus and C-terminus assumed)
[1]
  Concentration: 2109.3 pg/mL
  conc/live cell: 427.9 pg/10^5
[2]
  Concentration: 2082.8 pg/mL and 2215.5 pg/mL and 2029.7 pg/mL
  conc/live cell: 473.4 pg/10^5 and 369.2 pg/10^5 and 441.2 pg/10^5
[3]
  Concentration: 2023.7 pg/mL
  conc/live cell: 388.1 pg/10^5
[4]
  Concentration: 2036.2 pg/mL and 1963.4 pg/mL and 2071.4 pg/mL
  conc/live cell: 452.5 pg/10^5 and 297.5 pg/10^5 and 414.3 pg/10^5
[5]
  Concentration: 1922.5 pg/mL
  conc/live cell: 358.4 pg/10^5
[6]
  Concentration: 2109.9 pg/mL and 1768.2 pg/mL and 1889.5 pg/mL
  conc/live cell: 422.0 pg/10^5 and 315.8 pg/10^5 and 337.4 pg/10^5
[7]
  Concentration: 2123.4 pg/mL
  conc/live cell: 402.7 pg/10^5
[8]
  Concentration: 2174.1 pg/mL and 2114.7 pg/mL and 2081.5 pg/mL
  conc/live cell: 374.9 pg/10^5 and 440.6 pg/10^5 and 392.7 pg/10^5
[9]
  Concentration: 1799.9 pg/mL
  conc/live cell: 333.9 pg/10^5
[10]
  Concentration: 1889.0 pg/mL and 1766.4 pg/mL and 1744.2 pg/mL
  conc/live cell: 363.3 pg/10^5 and 327.1 pg/10^5 and 311.5 pg/10^5
[11]
  Concentration: 281.0 pg/mL
  conc/live cell: 44.6 pg/10^5
[12]
  Concentration: 258.9 pg/mL and 303.0 pg/mL
  conc/live cell: 41.8 pg/10^5 and 47.3 pg/10^5

## CC(C)C[C@H](NC(=O)CNC(=O)[C@H](CC(C)C)NC(=O)[C@H](CCC(N)=O)NC(=O)CNC(=O)[C@@H]1C[C@@H](O)CN1)C(=O)N[C@@H](C)C(=O)NCC(=O)N1CCC[C@H]1C(=O)N[C@@H](CCCCN)C(=O)O [YDE-011] (H-[Hyp]GQLGLAGPK-OH)
[1]
  Concentration: 1881.3 pg/mL
  conc/live cell: 355.2 pg/10^5
[2]
  Concentration: 1856.7 pg/mL and 1905.5 pg/mL and 1881.6 pg/mL
  conc/live cell: 412.6 pg/10^5 and 328.5 pg/10^5 and 324.4 pg/10^5
[3]
  Concentration: 1974.9 pg/mL
  conc/live cell: 339.7 pg/10^5
[4]
  Concentration: 1895.6 pg/mL and 2063.3 pg/mL and 1965.9 pg/mL
  conc/live cell: 300.9 pg/10^5 and 332.8 pg/10^5 and 385.5 pg/10^5
[5]
  Concentration: 1708.3 pg/mL
  conc/live cell: 300.6 pg/10^5
[6]
  Concentration: 1699.1 pg/mL and 1759.6 pg/mL and 1666.0 pg/mL
  conc/live cell: 257.4 pg/10^5 and 351.9 pg/10^5 and 292.3 pg/10^5
[7]
  Concentration: 1797.0 pg/mL
  conc/live cell: 358.5 pg/10^5
[8]
  Concentration: 1795.6 pg/mL and 1880.8 pg/mL and 1714.5 pg/mL
  conc/live cell: 326.5 pg/10^5 and 391.8 pg/10^5 and 357.2 pg/10^5
[9]
  Concentration: 1564.4 pg/mL
  conc/live cell: 297.3 pg/10^5
[10]
  Concentration: 1502.6 pg/mL and 1615.2 pg/mL and 1575.4 pg/mL
  conc/live cell: 278.3 pg/10^5 and 278.5 pg/10^5 and 335.2 pg/10^5
[11]
  Concentration: 281.9 pg/mL
  conc/live cell: 46.5 pg/10^5
[12]
  Concentration: 252.0 pg/mL and 301.1 pg/mL and 292.6 pg/mL
  conc/live cell: 41.3 pg/10^5 and 49.4 pg/10^5 and 48.8 pg/10^5

— US20230146455A1, “TREATMENT OF INFLAMMATORY DISEASES WITH PEPTIDES AND PHARMACEUTICAL COMPOSITIONS” (Yuyu Pharma, Inc., priority 2020, published 2023)
